{"source": "patent US20240238217A1", "about": "“USE OF CLOFOCTOL FOR THE TREATMENT OF INFLAMMATION” (INSTITUT NATIONAL DE LA SANTÉ ET DE LA RECHERCHE MÉDICALE, priority 2021, published 2024)", "key": {"SARS-CoV-2 [1]": {"system": "SARS-CoV-2", "assay": "In vitro antiviral activity (IC95) of clofoctol", "type": "cell-based"}, "[2]": {"system": "LPS-induced lung inflammation", "assay": "LPS-induced lung inflammation in mice (RT-qPCR of lung transcripts)", "type": "in vivo, C57BL/6J mice", "settings": "male mice, 50 mg/kg i.p. 1 h before and 8 h after i.n. LPS 10 μg/mouse, 24 h", "procedure": "FIG. 5: Effects of clofoctol treatment on LPS-induced lung inflammation. Male C57BL/6J mice were treated i.p. with clofoctol (50 mg/kg) or vehicle 1 h before and 8 h after i.n. inoculation of LPS (10 μg/mouse) or PBS. Animals were sacrificed 24 h after LPS inoculation. mRNA copy numbers of genes were quantified by RT-qPCR. Data are expressed as fold change over average gene expression in PBS-treated animals. Results are expressed as the mean±SD (n=6). Significant differences were determined using the Mann-Whitney U test (**p<0.01).\nC57BL/6 mice were inoculated by the intra-nasal route with LPS (Escherichia coli 0111:B4) at 10 μg/mouse. Clofoctol was injected i.p. 1 h before and 8 h after LPS administration. Mice were sacrificed 24 hrs after LPS inoculation."}, "[3]": {"system": "IAV H1N1 A/California/04/2009 (pdm09)", "assay": "IAV infection in mice: viral load, lung inflammation, pathology", "type": "in vivo, C57BL/6J mice", "settings": "50 mg/kg i.p."}, "[4]": {"system": "PMA-differentiated THP-1 macrophages", "assay": "LPS-induced cytokine expression in PMA-differentiated THP-1 macrophages (RT-qPCR and ELISA)", "type": "cell-based, human", "settings": "clofoctol 1 hour prior to LPS 100 ng/mL", "procedure": "FIG. 4: Effects of clofoctol treatment on LPS-induced cytokine mRNA expression by PMA-differentiated THP-1 macrophages. a, b, c and d) mRNA expression of MCP1, TNFα, IL-6 and IL-1β were quantified by RT-qPCR. Data are expressed as a fold-increase over the mean gene expression level in solvent control wells. (mean+/−SD from 3 experiments in duplicate). Significant differences were determined using the one-way ANOVA corrected for Dunnett's multiple comparisons test (**p<0.01; ***p<0.001, ****p<0.0001). ELISA of MCP1, TNFα and IL-6 (e, f and g) from supernatant of THP-1 cells pre-treated or not with Clofoctol or Dexamethasone and stimulated with LPS during 24 h. Results are expressed as the concentration of cytokine in pg/mL. (mean from one experiment in duplicate).\nTHP-1 designates a spontaneously immortalized monocyte-like cell line, derived from the peripheral blood of a childhood case of acute monocytic leukemia. Cells were cultivated in RPMI with HEPES without Glutamine complemented with 2 mM Glutamine, 10% FBS and 1% Penicillin/streptomycin and incubated at 37° C.-5% CO2. THP1 cells were used from passage 7 until passage 14 and they were negative for mycoplasma contamination, which was assessed with MycoAlert™ Mycoplasma Detection Kit (Lonza-Basel, Switzerland). […] In THP1, The levels of human cytokines were measured after 24 h of stimulation in the collected supernatants with human CCL2/MCP-1, IL-6 and TNF-α Duoset ELISA (R&D systems, Minneapolis, MN) according to the manufacturer's protocols.\nTotal RNA was extracted with NucleoSpin® RNA kit (Macherey-Nagel, Hoerdt, Germany). […] Relative quantification of MCP1, TNF-α, IL-6 and IL-1β was performed using the gene coding glyceraldehyde 3-phosphate dehydrogenase (GAPDH). Relative mRNA levels (2-ΔΔCt) were determined by comparing (a) the PCR cycle thresholds (Ct) for the gene of interest and the house keeping gene GAPDH (ΔCt) and (b) ΔCt values for treated and control groups (ΔΔCt). Data are expressed as a fold-increase over the mean gene expression level in solvent control wells."}, "MPI cells": {"system": "MPI cells", "assay": "LPS-induced cytokine production by alveolar macrophage MPI cells (ELISA)", "type": "cell-based, C57BL/6J mouse", "settings": "clofoctol added 30 minutes prior to LPS 10 ng/ml, 24 h, supernatant ELISA", "procedure": "FIG. 3: Effects of clofoctol treatment on LPS-induced cytokine production by alveolar macrophages. ELISA of IL-1β, IL-12p40, TNFα, and MCP-1 from supernatant of MPI cells pre-treated or not with clofoctol and stimulated or not with LPS during 24 h. The percentage cell viability post treatment is indicated. Significant differences were determined using the two-way ANOVA corrected for Dunnett's multiple comparisons test (viability test) or one-way ANOVA corrected for Dunnett's multiple comparisons test (n=7-11) (**p<0.01; ***p<0.001, ****p<0.0001).\nMax Plank Institute (MPI) cells are self-renewing and non-transformed cells originated from fetal liver of C57BL/6J mouse. MPI cells were used as a model of alveolar macrophages, due to their closer profile (Fejer et al., 2013). Cells were cultivated in RPMI Glutamax with 10% FBS, 1% Penicillin/streptomycin, and 30 ng/mL GM-CSF and incubated on 37° ° C.5% CO2. MPI cells were used from passage 6 until passage 30 and they were negative for mycoplasma contamination, which was assessed with MycoAlert™ Mycoplasma Detection Kit (Lonza-Basel, Switzerland). […] Cytokine production was measured from the supernatant of cells after 24 h of stimulation, accordingly to protocol's manufactures for IL-1β, IL-12p40, TNF-α, and MCP-1 (R&D Systems—Minneapolis, MN). […]"}, "SARS-COV-2 [5]": {"system": "SARS-COV-2", "type": "in vivo, K18-hACE2 transgenic C57BL/6J mice"}, "[6]": {"system": "IAV H1N1 A/California/04/2009 (pdm09)", "assay": "Long-term sequela (fibrosis) imposed by IAV infection in mice", "settings": "50 mg/kg i.p. once a day for 4 days"}, "[7]": {"settings": "female C57BL/6 mice, single i.p. dose 62.5 mg/kg"}, "[8]": {"settings": "female mice, day 4 post-infection"}}, "note": "Read-outs that look alike come from different tables or passages of the source."}
{"smiles": "CC(C)(C)CC(C)(C)c1ccc(O)c(Cc2ccc(Cl)cc2Cl)c1", "note": "[clofoctol, 2-[(2,4-dichlorophenyl)methyl]-4-(2,4,4-trimethylpentan-2-yl)phenol]", "values": [{"measurement": "clofoctol concentration in the lungs", "setting": "62.5 mg/kg i.p. twice daily during two days, 1 h after the fourth administration", "result": 67, "unit": "µM"}, {"measurement": "plasma concentration relative to lung concentration", "setting": "[7]", "result": "seven times lower"}, {"measurement": "time lung concentration remained above this level (61 μM)", "setting": "[7]", "result": "~4", "unit": "h"}, {"measurement": "clofoctol concentration in the lungs", "setting": "female C57BL/6 mice, single i.p. dose 62.5 mg/kg, 30 min after injection", "result": "up to 61 μM"}, {"measurement": "IC95 measured in vitro", "setting": "SARS-CoV-2 [1]", "result": "~10", "unit": "µM"}, {"measurement": "expression of transcripts encoding IL-6, TNFα, IL-1β, IFN-γ, IL12p40 and CCL2 in lungs", "setting": "[2]", "result": "markedly reduced"}, {"measurement": "IL-6 and IL-12p40 production in lungs", "setting": "[3]; ELISA, 4 dpi", "result": "Reduced"}, {"measurement": "transcript expression of interferon-stimulated genes Mx1, ISG15 and Cxcl10", "setting": "[3]; RT-qPCR", "result": "reduced"}, {"measurement": "viral RNA yields by RT-qPCR", "setting": "[3]; day 2 and 4 post-infection", "result": "trend in reduced viral load"}, {"measurement": "infectious viral load in the lungs", "setting": "[3]; day 2 and day 4 post-infection, titration on MDCK cells", "result": "slightly reduced"}, {"measurement": "expression of transcript encoding TNFα in lungs", "setting": "[3]; day 2 post-infection, RT-qPCR", "result": "to a lower extent"}, {"measurement": "expression of transcripts encoding IL-6, IL-12p40, Ccl2, IFN-γ in lungs", "setting": "[3]; day 2 post-infection, RT-qPCR", "result": "reduced"}, {"measurement": "lung pathology (histology, inflammation scoring)", "setting": "[3]; day 4 post-infection, hematoxylin and eosin", "result": "only a minimal interstitial inflammation"}, {"measurement": "expression of MCP1 and IL-6 genes", "setting": "[4]; 5 hours, RT-qPCR", "result": "significantly reducing"}, {"measurement": "MCP1 and IL-6 protein in supernatant", "setting": "[4]; 24 hours, ELISA", "result": "significantly reducing"}, {"measurement": "IL1-β and TNF-α expression/production", "setting": "[4]; RT-qPCR (5 hours) and TNFα ELISA (24 hours)", "result": "not significantly modulating"}, {"measurement": "production of inflammatory cytokines IL-1β, IL-12p40 and TNF-α", "setting": "MPI cells", "result": "inhibited, in a dose dependent manner"}, {"measurement": "viral load by RT-qPCR", "setting": "SARS-COV-2 [5]; female mice treated during the first 2 days, day 4 post-inoculation", "result": "decrease in viral load"}, {"measurement": "viral RNA yields in lungs by RT-qPCR", "setting": "SARS-COV-2 [5]; female mice, 62.5 mg/kg i.p., day 2 post-infection", "result": "reduced viral load"}, {"measurement": "expression of transcripts encoding IL-6, TNFα, IL12p40, IFNβ, IFNγ and ISG Mx1, Ifi44, ISG15 in lungs", "setting": "SARS-COV-2 [5]; female mice, 62.5 mg/kg i.p., day 2 post-infection, RT-qPCR", "result": "markedly reduced"}, {"measurement": "reduction of infectious viral load in the lungs vs vehicle", "setting": "SARS-COV-2 [5]; female mice, 62.5 mg/kg i.p., day 2 post-infection, titration on Vero-81 cells", "result": "more than 1.1 log10"}, {"measurement": "expression of transcripts encoding inflammatory markers", "setting": "SARS-COV-2 [5]; [8]", "result": "strongly decreased"}, {"measurement": "lung pathology (histology)", "setting": "SARS-COV-2 [5]; [8]", "result": "only a minimal interstitial inflammation"}, {"measurement": "inflammatory score of lung sections", "setting": "SARS-COV-2 [5]; female mice, day 4 post-infection, blinded scoring", "result": "reduces the inflammatory score"}, {"measurement": "infection-induced drop of Ocln and ZO1 transcript levels (epithelial barrier markers)", "setting": "SARS-COV-2 [5]; female mice, day 4 post-infection, lungs", "result": "significantly reduced"}, {"measurement": "lung fibrosis (Red Sirius staining)", "setting": "[6]; 28 days post-infection", "result": "tended to develop less fibrosis"}, {"measurement": "body weight", "setting": "[6]; IAV-infected mice", "result": "reduces body weight"}]}
